Experimental data as given in PubChem BioAssay (NCI).
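Abbreviation: GI50, concentration required for 50% inhibition of growth. TGI: concentration producing complete growth inhibition.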

Columns and labels:
Experiment in all cases: DTP human tumour cell line panel, 384-well format
[1] = test system: OVCAR-3 ovarian
[2] = test system: SF-539 CNS
[3] = test system: NCI-H322M lung
[4] = test system: A549 NSCLC
[5] = test system: LOX IMVI melanoma
[6] = test system: IGROV1 ovarian
[7] = test system: OVCAR-5 ovarian
[8] = test system: HCC-2998 colon
[9] = test system: ACHN renal
[10] = test system: CAKI-1 renal
[11] = test system: OVCAR-4 ovarian
[12] = test system: SK-MEL-28 melanoma
[13] = test system: MCF7 breast
[14] = test system: U251 glioblastoma
[15] = test system: EKVX NSCLC
[16] = test system: TK-10 renal
[17] = test system: RXF 393 renal
[18] = test system: NCI-H522 lung
[19] = test system: MALME-3M melanoma
[20] = test system: OVCAR-8 ovarian
[21] = test system: MDA-MB-468 breast
[22] = test system: T-47D breast
[23] = test system: HCT-15 colon
[24] = test system: NCI/ADR-RES ovarian
[25] = test system: SK-MEL-5 melanoma
[26] = test system: UACC-62 melanoma
[27] = test system: UACC-257 melanoma
[28] = test system: SNB-19 CNS
[29] = test system: 786-0 renal
[30] = test system: SK-MEL-2 melanoma

## Cc1ccccc1C(C(=O)NC1CCCCC1)N(C(=O)CNc1ncccc1F)c1cccc(F)c1 (centres undefined)
[1]
  TGI: > 100 µM
[2]
  GI50: > 100 µM
  TGI: > 100 µM
[3]
  GI50: > 100 µM
  TGI: > 100 µM
[4]
  GI50: > 100 µM
  TGI: > 100 µM
[5]
  GI50: > 100 µM
  TGI: > 100 µM
[6]
  GI50: > 100 µM
  TGI: > 100 µM
[7]
  GI50: > 100 µM
  TGI: > 100 µM
[8]
  GI50: > 100 µM
  TGI: > 100 µM
[9]
  GI50: > 100 µM
  TGI: > 100 µM
[10]
  GI50: > 100 µM
  TGI: > 100 µM
[11]
  GI50: > 100 µM
  TGI: > 100 µM
[12]
  GI50: > 100 µM
  TGI: > 100 µM
[13]
  GI50: > 100 µM
  TGI: > 100 µM
[14]
  GI50: > 100 µM
  TGI: > 100 µM
[15]
  GI50: > 100 µM
  TGI: > 100 µM
[16]
  GI50: > 100 µM
  TGI: > 100 µM
[17]
  GI50: > 100 µM
  TGI: > 100 µM
[18]
  GI50: > 100 µM
  TGI: > 100 µM
[19]
  GI50: > 100 µM
  TGI: > 100 µM
[20]
  GI50: > 100 µM
  TGI: > 100 µM
[21]
  GI50: > 100 µM
  TGI: > 100 µM
[22]
  GI50: > 100 µM
  TGI: > 100 µM
[23]
  GI50: > 100 µM
  TGI: > 100 µM
[24]
  GI50: > 100 µM
  TGI: > 100 µM
[25]
  GI50: > 100 µM
  TGI: > 100 µM
[26]
  GI50: > 100 µM
  TGI: > 100 µM
[27]
  GI50: > 100 µM
  TGI: > 100 µM
[28]
  GI50: > 100 µM
  TGI: > 100 µM
[29]
  GI50: > 100 µM
  TGI: > 100 µM
[30]
  GI50: > 100 µM
  TGI: > 100 µM
